{"source": "patent US20190201430A1", "about": "“TREATING OCULAR NEOVASCULARIZATION” (Massachusetts Eye and Ear Infirmary, priority 2014, published 2019)", "assay_type_in_all_cases": "cell-based, human", "key": {"caveolin-1 [1]": {"system": "caveolin-1", "assay": "Western blotting of VEGF induced caveolin-1 phosphorylation in HUVECs", "conditions": "AICAR 2 mM 2 h", "protocol": "(§1) Human umbilical vein endothelial cells (HUVECs) were cultured in endothelial growth medium (EGM, Lonza, Walkersville, Md.). Normal human dermal fibroblasts (NHDFs) were cultured in fibroblast basal medium (ATCC, Rockville, Md.). Cells were grown at 37° C. in a humidified atmosphere of 95% air, 5% CO2. Experiments were performed on cells below passage 3 to 6 grown to 80%-90% confluence.\n(§2) Protein extraction and Western blotting were carried out as described previously (Morizane et al. JBC (26)). We conducted a densitometric analysis of bands using ImageJ software. Lane-loading differences were normalized by β-actin.\n(§3) Cells were transfected with siRNAs using a Nucleofection kit (Amaxa Biosystems, Gaithersburg, Md.), following the manufacturer's protocol. The medium was changed 6 h after transfection. The down-regulation of each protein was evaluated 3 days after nucleofection."}, "VEGFR2/caveolin-1": {"system": "VEGFR2/caveolin-1", "assay": "Immunoprecipitation of VEGFR2 with caveolin-1 under VEGF", "conditions": "AICAR 2 mM 2 h, VEGF 12.5 ng/mL 10 min; FIG. 8F,G", "protocol": "Immunoprecipitation was performed with the Universal Magnetic Co-IP Kit (Active Motif North America, Carlsbad, Calif.) according to the manufacturer's instruction."}, "PTEN": {"system": "PTEN", "assay": "Western blotting of PTEN phosphorylation in HUVECs", "conditions": "AICAR 2 mM, presence or absence of VEGF; FIG. 9A,D", "protocol": "as §1, §2"}, "[2]": {"system": "HUVECs cocultured with NHDFs", "assay": "In vitro angiogenesis (tube formation) assay", "conditions": "AICAR 0.25, 0.5, 1.0, 2.0 mM; VEGF 12.5 ng/mL; FIG. 8A,B", "protocol": "To evaluate the effects of AICAR on angiogenesis, HUVECs were cocultured with NHDFs in a 24-well plate with or without VEGF and AICAR. NHDF cells were seeded at 1.0×10^5 cells/well and then cultured for 2 wks to form a fibroblast cell sheet. […] Suramin (50 μM) was used as the inhibitor of VEGF. At 3, 7 and 10 days after treatment, cells were fixed at −20° C. in ethanol and acetone (1:1). Subsequently, cells were blocked with 1% bovine serum albumin (BSA) in phosphate-buffered saline for 30 min at room temperature, and then incubated with primary rabbit anti-human CD31 antibody overnight at 4° C. After the cells were washed with Tris-buffered saline (TBS), Alexa Flour 488 goat anti-rabbit IgG was applied for 2 h at room temperature. The tube length was quantified using a Kurabo Angiogenesis Image Analyzer (imaging software; Kurabo, Osaka, Japan)."}, "HUVECs": {"system": "HUVECs", "assay": "Albumin endocytosis assay under VEGF", "conditions": "AICAR 2 mM 2 h, VEGF 12.5 ng/mL 10 min; FIG. 10B", "protocol": "After overnight serum starvation, HUVECs were pretreated with AICAR (2 mM) for 2 h and then stimulated with VEGF (12.5 ng/mL) for 10 min. We added BSA conjugated with Alexa 555 (50 μg/mL, Life Technologies, Gaithersburg, Md.) in the medium during the experiment. Cells on coverslips were washed three times with cold TBS and fixed in 100% methanol at −20° C. for 15 min. Cells were then permeabilized in 0.3% Triton X-100, 0.15% BSA in TBS with 0.05% Tween 20 (TBST) for 15 min at room temperature, and blocked with 0.5% skim milk in TBST for 60 min at room temperature. Cells were incubated in p-caveolin-1 antibody diluted 1:200 and VE-cadherin antibody diluted 1:400 overnight at 4° C., and then incubated for 2 h in secondary antibody diluted 1:300. Cells were then rinsed three times in TBST before mounting in Toto3 (Life Technologies). Images were acquired with a Leica TCS SP2 spectral confocal laser scanning microscope (Leica Microsystems, Wetzlar, Germany)."}, "Akt": {"system": "Akt", "assay": "Western blotting of Akt phosphorylation in HUVECs (VEGF)", "protocol": "as §1, §2, §3"}, "caveolin-1 [3]": {"system": "caveolin-1", "assay": "Western blotting of H2O2 induced caveolin-1 phosphorylation in HUVEC", "conditions": "AICAR 2 mM 2 h", "protocol": "HUVECs (Lonza, Walkersville, Md.) were cultured in Endothelial Growth Medium (EGM, Lonza, Walkersville, Md.). For all experiments, cells were grown at 37° C. in a humidified atmosphere of 5% CO2 and 95% air. Experiments were performed on cells below passage 3 to 6 grown to 80-90% confluence.\nProtein extraction and western blotting were carried out as described previously (Morizane et al. JBC). Densitometric analysis of bands was performed using ImageJ software. Lane-loading differences were normalized by β-actin.\n(§4) Cells were transfected with siRNAs using Nucleofection kit (Amaxa Biosysteins, Gaithersburg, Md.), following the manufacturer's protocol. The medium was changed at 6 h after transfection. The down-regulation of each protein was evaluated at 3 days after nucleofection."}, "AMPK": {"system": "AMPK", "assay": "Western blotting of AMPK phosphorylation in HUVECs (Example 2)", "protocol": "as §1, §2"}, "prdx1/c-Abl complex": {"system": "prdx1/c-Abl complex", "assay": "Co-immunoprecipitation of prdx1 and c-Abl under H2O2", "conditions": "AICAR 2 mM 2 h, H2O2 2 mM 30 min", "protocol": "Immunoprecipitation was performed with the Universal Magnetic Co-IP Kit (Active Motif North America, Carlsbad, Calif.), according to the manufacturer's instruction.\nas §4"}, "HUVEC monolayer": {"system": "HUVEC monolayer", "assay": "In vitro vascular permeability assay (Alexa 555-BSA leakage)", "conditions": "AICAR 2 mM 2 h, VEGF 12.5 ng/mL 10 min; FIG. 10A", "protocol": "We conducted the in vitro vascular permeability assay using Alexa Flour 555-labeled bovine serum albumin (BSA) (Invitrogen) and an In Vitro Vascular Permeability Assay kit (Millipore). According to the manufacturer's instructions, HUVECs were seeded at a density of 1×10^5 on a collagen-coated polystyrene filter. After a confluent monolayer was formed, each chamber was treated with AICAR or stimulated with VEGF. To measure endothelial permeability, 100 μL of Alexa Flour 555-BSA solution (0.050 mg/mL) was added into the insert and incubated for 10 min, and then the insert was removed and 100 μL medium was collected from the bottom chamber.\nThe fluorescent density of samples was analyzed on a SPECTRAmax GEMINI XS Microplate Spectrofluorometer (Molecular Devices, Sunnyvale, Calif.) at excitation and emission wavelengths of 555 nm and 565 nm, respectively."}}}
{"smiles": "NC(=O)c1ncn([C@@H]2O[C@H](CO)[C@@H](O)[C@H]2O)c1N", "note": "[AICAR, 5-Aminoimidazole-4-carboxamide riboside]", "values": [{"measurement": "VEGF induced phosphorylation of caveolin-1", "setting": "caveolin-1 [1]; VEGF 12.5 ng/mL 0 to 60 min, FIG. 11A,C", "result": "significantly suppressed"}, {"measurement": "inhibitory effect of AICAR on VEGF-induced caveolin-1 phosphorylation after knockdown of either AMPKα isoform", "setting": "caveolin-1 [1]; AMPKα1 or α2 siRNA, VEGF 12.5 ng/mL 10 min, FIG. 13", "result": "abolished"}, {"measurement": "inhibitory effect of AICAR on VEGF-induced caveolin-1 phosphorylation in cells lacking prdx1", "setting": "caveolin-1 [1]; prdx1 siRNA, VEGF 12.5 ng/mL 10 min, FIG. 15A,C", "result": "abolished"}, {"measurement": "VEGFR2 dissociation from caveolin-1 upon VEGF stimulation", "setting": "VEGFR2/caveolin-1", "result": "no effect"}, {"measurement": "PTEN phosphorylation on AICAR treatment (time course)", "setting": "PTEN", "result": "resulted in AMPK and PTEN phosphorylation"}, {"measurement": "VEGF-induced vascular tube formation (tube length)", "setting": "[2]", "result": "dose-dependent inhibition"}, {"measurement": "VEGF-induced albumin endocytosis", "setting": "HUVECs", "result": "significantly suppressed"}, {"measurement": "VEGF induced Akt phosphorylation", "setting": "Akt; AICAR 2 mM 2 h, VEGF 12.5 ng/mL 0 to 60 min, FIG. 8C,E", "result": "significantly suppressed and delayed"}, {"measurement": "Akt phosphorylation state on AICAR treatment (time course)", "setting": "Akt; AICAR 2 mM, presence or absence of VEGF, FIG. 9A,C", "result": "Akt dephosphorylation"}, {"measurement": "inhibitory effect of AICAR on VEGF-induced Akt phosphorylation after knockdown of either AMPKα isoform", "setting": "Akt; AMPKα1 or α2 siRNA, AICAR 2 mM 2 h, VEGF 12.5 ng/mL 10 min, FIG. 13", "result": "abolished"}, {"measurement": "effects of AICAR on Akt dephosphorylation after PTEN knockdown", "setting": "Akt; PTEN siRNA, AICAR 2 mM 2 h, VEGF 12.5 ng/mL 10 min, FIG. 9E,F", "result": "abrogated"}, {"measurement": "inhibitory effect of AICAR on H2O2 induced caveolin-1 phosphorylation after knockdown of either AMPKα isoform", "setting": "caveolin-1 [3]; AMPKα1 or α2 siRNA HUVEC, H2O2 2 mM 30 min, FIG. 3", "result": "abolished"}, {"measurement": "H2O2 induced phosphorylation of caveolin-1", "setting": "caveolin-1 [3]; HUVEC, then H2O2 0.5-2.0 mM 30 min, FIG. 1A,B", "result": "significantly suppressed"}, {"measurement": "H2O2 induced caveolin-1 phosphorylation in c-Abl siRNA cells", "setting": "caveolin-1 [3]; c-Abl siRNA HUVEC, H2O2 2 mM 30 min, FIG. 5D,E", "result": "did not change caveolin-1 phosphorylation significantly"}, {"measurement": "inhibitory effect of AICAR on H2O2 induced caveolin-1 phosphorylation in cells lacking prdx1", "setting": "caveolin-1 [3]; prdx1 siRNA HUVEC, H2O2 2 mM 30 min, FIG. 6A,B", "result": "abolished"}, {"measurement": "AMPK phosphorylation on AICAR treatment (time course)", "setting": "AMPK; AICAR 2 mM, presence or absence of VEGF, FIG. 9A,B", "result": "resulted in AMPK and PTEN phosphorylation"}, {"measurement": "AMPK phosphorylation on AICAR administration", "setting": "AMPK; each concentration of AICAR for 2 h, FIG. 12A", "result": "dose dependent AMPK phosphorylation"}, {"measurement": "H2O2 induced dissociation between prdx1 and c-Abl", "setting": "prdx1/c-Abl complex; FIG. 6D", "result": "inhibited"}, {"measurement": "inhibitory effect of AICAR on dissociation between c-Abl and prdx1 after deletion of AMPKα1 or α2", "setting": "prdx1/c-Abl complex; AMPKα1 or α2 siRNA HUVEC, FIG. 6F,G", "result": "decreased"}, {"measurement": "VEGF-induced albumin leakage", "setting": "HUVEC monolayer", "result": "significantly suppressed"}]}
